# Where two headings read alike, the source gives them in different places.
# Molecular target: PRMT5/MEP50 complex (Homo sapiens (Human), UniProt O14744)
# Assay: PRMT5:MEP50 FlashPlate Assay (histone H4 peptide substrate, plus and minus MTA)
# Assay type: biochemical
# Description: The PRMT5 inhibitory activity of compounds of the present invention was determined using either a PRMT5:MEP50 FlashPlate Assay (Reaction Biology Corporation) or a PRMT5:MEP50 HotSpot Assay (Reaction Biology Corporation).
# 1. PRMT5:MEP50 FlashPlate Assay
# [1] = IC50 + 2 μM MTA (nM), in the presence of 2 μM MTA
# [2] = in the absence of MTA, read-out: IC50
# [3] = read-out: IC50 + 2 μM MTA, in the presence of 2 μM MTA
# PRMT5/MEP50 complex, sequence (O14744 2-637): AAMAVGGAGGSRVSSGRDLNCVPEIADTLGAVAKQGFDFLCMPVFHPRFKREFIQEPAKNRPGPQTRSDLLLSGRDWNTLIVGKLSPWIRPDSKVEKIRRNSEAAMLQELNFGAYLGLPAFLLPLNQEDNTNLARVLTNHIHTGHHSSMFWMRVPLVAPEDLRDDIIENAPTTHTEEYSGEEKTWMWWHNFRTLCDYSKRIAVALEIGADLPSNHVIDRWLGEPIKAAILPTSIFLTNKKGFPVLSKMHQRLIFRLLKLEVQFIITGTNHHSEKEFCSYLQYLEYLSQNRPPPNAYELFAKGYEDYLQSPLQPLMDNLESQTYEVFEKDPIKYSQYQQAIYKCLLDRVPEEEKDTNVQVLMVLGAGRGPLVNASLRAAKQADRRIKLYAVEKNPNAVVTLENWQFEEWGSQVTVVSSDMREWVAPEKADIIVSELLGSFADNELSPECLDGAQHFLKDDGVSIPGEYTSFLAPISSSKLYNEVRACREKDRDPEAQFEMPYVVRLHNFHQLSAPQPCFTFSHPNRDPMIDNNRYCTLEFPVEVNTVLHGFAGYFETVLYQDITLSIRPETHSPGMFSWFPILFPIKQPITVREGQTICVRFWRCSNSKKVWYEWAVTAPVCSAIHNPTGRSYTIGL
# PRMT5/MEP50 complex, sequence (Q9BQA1 2-342 partner): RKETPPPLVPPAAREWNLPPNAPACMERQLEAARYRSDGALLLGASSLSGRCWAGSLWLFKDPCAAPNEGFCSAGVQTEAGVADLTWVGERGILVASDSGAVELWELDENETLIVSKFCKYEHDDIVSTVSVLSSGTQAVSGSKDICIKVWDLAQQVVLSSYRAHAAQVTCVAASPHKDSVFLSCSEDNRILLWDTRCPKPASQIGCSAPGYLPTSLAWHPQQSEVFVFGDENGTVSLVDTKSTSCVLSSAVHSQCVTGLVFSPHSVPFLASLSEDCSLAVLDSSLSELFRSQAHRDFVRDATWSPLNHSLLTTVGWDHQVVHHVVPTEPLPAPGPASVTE
IC50 [1] [nM],IC50 [2] [nM],IC50 [3] [nM],Compound
1400,34800,,"NCc1n[nH]c(=O)c2ccc(-c3cccnc3)cc12 [Example 1-5, 4-(aminomethyl)-6-(pyridin-3-yl)phthalazin-1(2H)-one]"
3700,89600,,"NCc1n[nH]c(=O)c2ccc(-c3cncs3)cc12 [Example 3-1, 4-(aminomethyl)-6-(thiazol-5-yl)phthalazin-1(2H)-one]"
42000,10000,,"NCc1n[nH]c(=O)c2ccc(-c3ccnnc3)cc12 [Example 3-2, 4-(aminomethyl)-6-(pyridazin-4-yl)phthalazin-1(2H)-one]"
25000,10000,,"CCc1ccc(-c2ccc3c(=O)[nH]nc(CN)c3c2)cn1 [Example 3-3, 4-(aminomethyl)-6-(6-ethylpyridin-3-yl)phthalazin-1(2H)-one]"
1400,38300,,"Cc1cc(-c2ccc3c(=O)[nH]nc(CN)c3c2)cnc1C [Example 3-4, 4-(aminomethyl)-6-(5,6-dimethylpyridin-3-yl)phthalazin-1(2H)-one]"
7400,87900,,"Cc1ccc(-c2ccc3c(=O)[nH]nc(CN)c3c2)cn1 [Example 3-5, 4-(aminomethyl)-6-(6-methylpyridin-3-yl)phthalazin-1(2H)-one]"
> 1e+06,> 1e+06,,"NCc1n[nH]c(=O)c2ccc(-c3ccc(C(F)(F)F)nc3)cc12 [Example 3-8, 4-(aminomethyl)-6-(6-(trifluoromethyl)pyridin-3-yl)phthalazin-1(2H)-one]"
100,3910,,"Cc1cncc(-c2ccc3c(=O)[nH]nc(CN)c3c2)c1 [Example 3-10, 4-(aminomethyl)-6-(5-methylpyridin-3-yl)phthalazin-1(2H)-one]"
5000,131000,,"Cc1ncc(-c2ccc3c(=O)[nH]nc(CN)c3c2)cn1 [Example 3-11, 4-(aminomethyl)-6-(2-methylpyrimidin-5-yl)phthalazin-1(2H)-one]"
210000,> 1e+06,,"NCc1n[nH]c(=O)c2ccc(-c3cnc(C(F)(F)F)nc3)cc12 [Example 3-12, 4-(aminomethyl)-6-(2-(trifluoromethyl)pyrimidin-5-yl)phthalazin-1(2H)-one]"
110,1420,,"CCc1cncc(-c2ccc3c(=O)[nH]nc(CN)c3c2)c1 [Example 3-13, 4-(aminomethyl)-6-(5-ethylpyridin-3-yl)phthalazin-1(2H)-one]"
17,413,,"CC(C)c1cncc(-c2ccc3c(=O)[nH]nc(CN)c3c2)c1 [Example 3-14, 4-(aminomethyl)-6-(5-isopropylpyridin-3-yl)phthalazin-1(2H)-one]"
650,18700,,"CCn1cc(-c2ccc3c(=O)[nH]nc(CN)c3c2)cn1 [Example 3-15, 4-(aminomethyl)-6-(1-ethyl-1H-pyrazol-4-yl)phthalazin-1(2H)-one]"
53000,,,"Cn1nc(C(F)(F)F)cc1-c1ccc2c(=O)[nH]nc(CN)c2c1 [Example 3-20, 4-(aminomethyl)-6-(1-methyl-3-(trifluoromethyl)-1H-pyrazol-5-yl)phthalazin-1(2H)-one]"
71000,> 100000,,"Cn1cc(-c2ccc3c(=O)[nH]nc(CN)c3c2)c(C(F)(F)F)n1 [Example 3-25, 4-(aminomethyl)-6-(1-methyl-3-(trifluoromethyl)-1H-pyrazol-4-yl)phthalazin-1(2H)-one]"
61,1570,,"NCc1n[nH]c(=O)c2ccc(-c3cncc(C4CC4)c3)cc12 [Example 3-33, 4-(aminomethyl)-6-(5-cyclopropylpyridin-3-yl)phthalazin-1(2H)-one]"
73,2040,,"CCCc1cncc(-c2ccc3c(=O)[nH]nc(CN)c3c2)c1 [Example 3-34, 4-(aminomethyl)-6-(5-propylpyridin-3-yl)phthalazin-1(2H)-one]"
450,9130,,"NCc1n[nH]c(=O)c2ccc(-c3cncc(C(F)F)c3)cc12 [Example 3-36, 4-(aminomethyl)-6-(5-(difluoromethyl)pyridin-3-yl)phthalazin-1(2H)-one]"
3200,72100,,"N#Cc1cncc(-c2ccc3c(=O)[nH]nc(CN)c3c2)c1 [Example 3-37, 5-(4-(aminomethyl)-1-oxo-1,2-dihydrophthalazin-6-yl)nicotinonitrile]"
920,24300,,"CC#Cc1cncc(-c2ccc3c(=O)[nH]nc(CN)c3c2)c1 [Example 3-39, 4-(aminomethyl)-6-(5-(prop-1-yn-1-yl)pyridin-3-yl)phthalazin-1(2H)-one]"
1600,27500,,"NCc1n[nH]c(=O)c2ccc(-c3cncc(F)c3)cc12 [Example 3-41, 4-(aminomethyl)-6-(5-fluoropyridin-3-yl)phthalazin-1(2H)-one]"
200,3580,,"NCc1n[nH]c(=O)c2ccc(-c3cncc(Cl)c3)cc12 [Example 3-42, 4-(aminomethyl)-6-(5-chloropyridin-3-yl)phthalazin-1(2H)-one]"

# The remaining lines, values behind:
Compound,IC50 [1] [nM],IC50 [2] [nM],IC50 [3] [nM]
"NCc1n[nH]c(=O)c2ccc(C3CCOC3)cc12 (racemic) [Example 5-2, (R,S)-4-(aminomethyl)-6-(THF-3-yl)phthalazin-1(2H)-one]",57000,> 100000,
"NCc1n[nH]c(=O)c2cc(-c3ccccn3)ccc12 [Example 1-4, 4-(aminomethyl)-7-(pyridin-2-yl)phthalazin-1(2H)-one]",39000,> 100000,
"Cn1cc(-c2ccc3c(CN)n[nH]c(=O)c3c2)cn1 [Example 1-8, 4-(aminomethyl)-7-(1-methyl-1H-pyrazol-4-yl)phthalazin-1(2H)-one]",10000,> 100000,
"NCc1n[nH]c(=O)c2ccc(-c3cnc4ccccc4c3)cc12 [Example 3-6, 4-(aminomethyl)-6-(quinolin-3-yl)phthalazin-1(2H)-one]",5100,47100,
"Cc1c(-c2ccc3c(=O)[nH]nc(CN)c3c2)cnn1C [Example 3-9, 4-(aminomethyl)-6-(1,5-dimethyl-1H-pyrazol-4-yl)phthalazin-1(2H)-one]",33,1230,
"NCc1n[nH]c(=O)c2ccc(-c3cnn4ccccc34)cc12 [Example 3-16, 4-(aminomethyl)-6-(pyrazolo[1,5-a]pyridin-3-yl)phthalazin-1(2H)-one]",13,186,
"CC(C)n1cc(-c2ccc3c(=O)[nH]nc(CN)c3c2)cn1 [Example 3-17, 4-(aminomethyl)-6-(1-isopropyl-1H-pyrazol-4-yl)phthalazin-1(2H)-one]",770,15100,
"Cc1ncccc1-c1ccc2c(=O)[nH]nc(CN)c2c1 [Example 3-18, 4-(aminomethyl)-6-(2-methylpyridin-3-yl)phthalazin-1(2H)-one]",33000,> 1e+06,
"Cc1ccncc1-c1ccc2c(=O)[nH]nc(CN)c2c1 [Example 3-19, 4-(aminomethyl)-6-(4-methylpyridin-3-yl)phthalazin-1(2H)-one]",180,6360,
"Cc1cc(-c2ccc3c(=O)[nH]nc(CN)c3c2)[nH]n1 [Example 3-21, 4-(aminomethyl)-6-(5-methyl-1H-pyrazol-3-yl)phthalazin-1(2H)-one]",1800,39400,
"Cc1nn(C)cc1-c1ccc2c(=O)[nH]nc(CN)c2c1 [Example 3-22, 4-(aminomethyl)-6-(1,3-dimethyl-1H-pyrazol-4-yl)phthalazin-1(2H)-one]",35000,> 100000,
"CCCn1cc(-c2ccc3c(=O)[nH]nc(CN)c3c2)cn1 [Example 3-23, 4-(aminomethyl)-6-(1-propyl-1H-pyrazol-4-yl)phthalazin-1(2H)-one]",230,6430,
"Cc1nn(C)c(C)c1-c1ccc2c(=O)[nH]nc(CN)c2c1 [Example 3-24, 4-(aminomethyl)-6-(1,3,5-trimethyl-1H-pyrazol-4-yl)phthalazin-1(2H)-one]",20000,> 100000,
"CC(C)CCn1cc(-c2ccc3c(=O)[nH]nc(CN)c3c2)cn1 [Example 3-26, 4-(aminomethyl)-6-(1-isopentyl-1H-pyrazol-4-yl)phthalazin-1(2H)-one]",1600,20600,
"CC(C)Cn1cc(-c2ccc3c(=O)[nH]nc(CN)c3c2)cn1 [Example 3-27, 4-(aminomethyl)-6-(1-isobutyl-1H-pyrazol-4-yl)phthalazin-1(2H)-one]",4200,59000,
"NCc1n[nH]c(=O)c2ccc(-c3cnco3)cc12 [Example 3-28, 4-(aminomethyl)-6-(oxazol-5-yl)phthalazin-1(2H)-one]",> 100000,> 100000,
"Cn1cc(-c2ccc3c(=O)[nH]nc(CN)c3c2)c2cccnc21 [Example 3-29, 4-(aminomethyl)-6-(1-methyl-1H-pyrrolo[2,3-b]pyridin-3-yl)phthalazin-1(2H)-one]",10000,,
"Cn1cncc1-c1ccc2c(=O)[nH]nc(CN)c2c1 [Example 3-30, 4-(aminomethyl)-6-(1-methyl-1H-imidazol-5-yl)phthalazin-1(2H)-one]",7700,85200,
"NCc1n[nH]c(=O)c2ccc(-c3cnc[nH]3)cc12 [Example 3-31, 4-(aminomethyl)-6-(1H-imidazol-5-yl)phthalazin-1(2H)-one]",80000,> 100000,
"NCc1n[nH]c(=O)c2ccc(-c3cnn(CCO)c3)cc12 [Example 3-32, 4-(aminomethyl)-6-(1-(2-hydroxyethyl)-1H-pyrazol-4-yl)phthalazin-1(2H)-one]",,11600,710
"NCc1n[nH]c(=O)c2ccc(-c3cncc(CC4CC4)c3)cc12 [Example 3-35, 4-(aminomethyl)-6-(5-(cyclopropylmethyl)pyridin-3-yl)phthalazin-1(2H)-one]",59,1530,
N#Cc1cncc(-c2ccc3c(=O)[nH]nc(CN)c3c2)c1F [Example 3-38],,4940,370

# From patent publication US11479551B2, “MTA-cooperative PRMT5 inhibitors” (Mirati Therapeutics, Inc., priority 2019, dated 2022)
